Source: ChEMBL document CHEMBL1159182, “SAR of cocaine: further exploration of structural variations at the C-2 center provides compounds of subnanomolar binding potency” (Bioorg Med Chem Lett, 1993)
pIC50, pKi: −log10 of the molar value. Several values for one entry are separate records, joined by “and”; a condition that tells them apart may be missing. Equal entries are not always repeated.

What was measured:
[1] = biological target: T1, Sodium-dependent dopamine transporter (Homo sapiens, UniProt Q01959); test: Inhibitory concentration against [3H]dopamine uptake; format: functional
T1 sequence (Q01959 whole entry): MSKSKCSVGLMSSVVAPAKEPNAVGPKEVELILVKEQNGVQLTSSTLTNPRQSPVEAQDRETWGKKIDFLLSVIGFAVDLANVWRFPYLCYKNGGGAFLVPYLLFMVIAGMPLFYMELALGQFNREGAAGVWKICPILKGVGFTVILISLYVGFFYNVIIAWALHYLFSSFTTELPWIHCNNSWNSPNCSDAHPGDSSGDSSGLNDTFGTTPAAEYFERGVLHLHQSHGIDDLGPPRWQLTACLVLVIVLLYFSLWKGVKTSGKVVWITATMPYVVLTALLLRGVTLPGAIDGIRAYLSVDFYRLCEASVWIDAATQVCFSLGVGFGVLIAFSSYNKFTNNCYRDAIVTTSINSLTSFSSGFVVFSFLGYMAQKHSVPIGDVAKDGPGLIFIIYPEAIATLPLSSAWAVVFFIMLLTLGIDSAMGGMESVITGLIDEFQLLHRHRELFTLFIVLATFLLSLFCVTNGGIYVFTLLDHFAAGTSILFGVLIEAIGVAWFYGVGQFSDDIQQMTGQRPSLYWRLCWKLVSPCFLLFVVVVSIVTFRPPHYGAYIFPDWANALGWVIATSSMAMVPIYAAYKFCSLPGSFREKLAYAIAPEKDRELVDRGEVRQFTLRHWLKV

[2] = biological target: T1, Sodium-dependent dopamine transporter; test: Displacement of [3H]mazindol from dopamine transporter
[3] = biological target: T1, Sodium-dependent dopamine transporter; test: Ability to displace [3H]-Mazindol from dopamine receptor
[4] = biological target: T1, Sodium-dependent dopamine transporter; test: Ability to displace [3H]mazindol to dopamine receptor; not being isolated
[5] = biological target: T1, Sodium-dependent dopamine transporter; test: Inhibitory concentration required for [3H]dopamine uptake; not being isolated; format: functional
[6] = biological target: T1, Sodium-dependent dopamine transporter; test: Ability to displace [3H]mazindol from dopamine transporter
[7] = biological target: T1, Sodium-dependent dopamine transporter; test: Binding constant for [3H]dopamine uptake was calculated from the Cheng-Prusoff relationship
[8] = biological target: T1, Sodium-dependent dopamine transporter; test: Binding constant for the ability to displace [3H]mazindol to dopamine receptor was calculated from the Cheng-Prusoff relationship

SMILES | pIC50 [1] | pIC50 [2] | further results
CN1C2CCC1[C@H](/C=C/Cl)[C@@H](c1ccc(Cl)cc1)C2 (stereo partly specified) | 7.72 and 7.80 | 7.62 and 7.74 | –
CC[C@@H]1C2CCC(C[C@@H]1c1ccc(Cl)cc1)N2C (stereo partly specified) | 8.59 | 8.46 | –
CN1C2CCC1[C@@H]([C@@H](O)C(F)(F)F)[C@@H](c1ccc(Cl)cc1)C2 (stereo partly specified) | 7.98 | 8.04 | –
C=C[C@@H]1C2CCC(C[C@@H]1c1ccc(Cl)cc1)N2C (stereo partly specified) | 8.55 | – | pIC50 [3]: 8.92
CN1C2CCC1[C@@H](C(=O)C(F)(F)F)[C@@H](c1ccc(Cl)cc1)C2 (stereo partly specified) | – | – | IC50 [4]: not isolated; IC50 [5]: not isolated
CN1C2CCC1[C@H](C(=O)C(F)(F)F)[C@@H](c1ccc(Cl)cc1)C2 (stereo partly specified) | 6.42 | 5.92 | –
CN1C2CCC1[C@@H]([C@H](O)C(F)(F)F)[C@@H](c1ccc(Cl)cc1)C2 (stereo partly specified) | – | – | IC50 [4]: not isolated; IC50 [5]: not isolated
COC(=O)C1C2CC[C@H](C[C@@H]1c1ccc(Cl)cc1)N2C (stereo partly specified) | 8.49 | – | pIC50 [6]: 8.77
CN1C2CCC1[C@@H](/C=C/Cl)[C@@H](c1ccc(Cl)cc1)C2 (stereo in doubt; 4) | 8.89 | 9.14 | –
CN1C2CCC1[C@@H](/C=C/Cl)[C@@H](c1ccc(Cl)cc1)C2 (stereo in doubt; 5) | 9.00 | 9.44 | pKi [7]: 9.06; pKi [8]: 9.66
CN1C2CCC1[C@H](C(O)C(F)(F)F)[C@@H](c1ccc(Cl)cc1)C2 (stereo in doubt; 12) | 6.90 | 6.78 | –
CN1C2CCC1[C@H](C(O)C(F)(F)F)[C@@H](c1ccc(Cl)cc1)C2 (stereo in doubt; 13) | 6.28 | 5.96 | –
